Laboratory results from patent publication US20250129334A1, “LINEAGE SPECIFICATION DURING STEM CELL TRANSITION” (Amniotics AB, priority 2021, published 2025).

How the values were obtained:
[1] = tested on: fetal liver; experiment: In vivo compound injection of pregnant mice, fetal liver analysis at E14.5
Description: For fetal liver analysis, pregnant female C57Bl/6xB6.SJL mice were injected intraperitoneally at E9.5 with UK5099 (4 mg/kg) or DCA (200 mg/kg) or PBS (control). Embryos were harvested at E14.5 and individually weighed and processed. Fetal livers were dissected and homogenised in 800 μL ice cold PBS supplemented with 2% fetal bovine serum (FBS) and FL cells were washed in PBS with 2%/FBS. For the differentiated lineage panel, cells were stained with B220 and CD19 (B-cell markers)-PE, CD3e-APC, Ter119-PeCy7 and CD71-FITC and analyzed on a BD FACSARIA III. For the HSC panel, samples were first treated with ammonium chloride solution (STEMCELL Technologies, France) to lyse red blood cells, washed twice in ice cold PBS with 2% FBS, stained with CD3e, B220, Ter119, Gr1 (Lineage)-PeCy5, c-Kit-Efluor780, Sca1-BV421, CD48-FITC, CD150-BV605 and 7-AAD (for dead cell exclusion) and analyzed on a BD FACSARIA III. […] For plating of CFU assays, 100 LT-HSCs were sorted (gating strategy shown in FIG. 11, e) and resuspended in 3.0 mL Methocult M3434 (STEMCELL Technologies, France). Each mixture was divided onto 2 wells of a non-tissue culture treated 6-well plate. Following a 14-day incubation in a humidified incubator at 37° C., 5% CO2, 20% O2, colonies were morphologically distinguished and scored. […] Cells were stained with anti-cKit and anti-CD45 antibodies and analyzed on a BD LSRFortessa. […]

[2] = tested on: HBE1, HBG1-2, HBA1-2 transcripts; experiment: Globin transcript q-PCR in CFU colonies; format: cell-based, human; details: normalized to KLF1, UK5099 10 μM
Description: Subcultured HE cells were treated with StemPro Accutase Cell Dissociation Reagent for 2 minutes at 37° C. and dissociated cells were resuspended in 3 ml Methocult H4230 (STEMCELL Technologies, France) (prepared according to manufacturer's instructions, with 20 mL Iscove's Modified Dulbecco's Medium containing 2.5 μg hSCF, 5 μg GM-CSF, 2.5 μg IL-3 and 500 U EPO). Each mixture was divided onto 2 wells of a non-tissue culture treated 6-well plate. Following a 12-day incubation in a humidified incubator at 37° C., 5% CO2, 20% O2, colonies were morphologically distinguished and scored. For globin analysis, colonies in Methocult wells were harvested with PBS, washed thoroughly and frozen in RLT buffer with β-mercaptoethanol. Following RNA extraction and RT (Qiagen), gene expression was assessed with taqman probes by q-PCR. The taqman probes used for this assay are HBA1/2 (Hs00361191_g1), HBE1 (Hs00362216_m1), HBG2/1 (Hs00361131_g1) and KLF1 (Hs00610592_m1).

[3] = tested on: iPSC-CD34+; experiment: NK cell cytotoxic degranulation (CD107) with or without K562 co-culture; format: cell-based, human; details: absence of K562; DCA 10 mM, CP 2.5 μM, cholesterol 0.5x
Excerpt: NK cell anti-tumour activity can occur via cytotoxic degranulation. CD107 is a marker that is present in the cytotoxic vesicles of NK cells, and so is not expressed on the cell surface of inactivated NK cells. However, upon NK cell activation and degranulation, the CD107 target becomes detectable on the cell surface. Therefore, the level of CD107 detected on NK cells correlates with cytotoxic degranulation. In this assay, several exemplary metabolic regulators were used to assess cytotoxic degranulation in a co-culture assay with K562 cells (an exemplary cancer cell model). As a negative control, iPSC-CD34^+ untreated with a metabolic regulator were used, in which a basal level of 3.27% of degranulated NK cells (CD3^−CD56^+CD16^+CD107^+ cells) were observed (FIG. 16A, top panel).

SMILES | frequency of phenotypic long-term HSCs (LT-HSCs) ([1]; LSK CD48-CD150+, UK5099 4 mg/kg, DCA 200 mg/kg) | in vivo EHT and hematopoiesis ([1]; UK5099 4 mg/kg i.p. at E9.5) | HBE1 (embryonic) globin transcripts [2] | HBG1-2 (fetal) globin transcripts [2] | HBA1-2 (adult globin) expression ([2]; DCA 3 mM) | degranulated NK cells (CD3-CD56+CD16+CD107+ cells) [3] | increase in degranulated NK cells vs untreated control [3]
N#CC(=Cc1cn(-c2ccccc2)c2ccccc12)C(=O)O [UK5099, 2-Cyano-3-(1-phenyl-1H-indol-3-yl)-2-propenoic acid] | not significantly affected | did not see a significant effect | significant increase | significant increase | did not have an effect |  | 
O=C(O)C(Cl)Cl [DCA, dichloroacetate] |  |  |  |  |  | 13.8 % of the population | more than 4 fold
